The numbers were not newly measured in patent US7314641B1, “High-bioavailability particle coated with fungicide and polymer” (Everest Pharm. Industrial Co., Ltd., priority 2007, dated 2008), which cites them from elsewhere.

The conditions of data set [1]: prior art statement on the compound of U.S. Pat. No. 4,267,179.

Take `CCC(C)n1ncn(-c2ccc(N3CCN(c4ccc(OCC5COC(Cn6cncn6)(c6ccc(Cl)cc6Cl)O5)cc4)CC3)cc2)c1=O` (single isomer, unassigned; (+)) [itraconazole, (+)-cis-4-[4-[4-[-4[[2-(2,4-dichlorophenyl)-2-(1H-1,2,4-triazol-1-ylmethyl)-1,3-dioxolan-4-yl]methoxy]phenyl]-1-piperazinyl]phenyl-2,4-dihydro-2-1(1-methylpropyl)-3H-1,2,4-triazol-3-one]: the “Metabolic period in human beings” value was 96 h. In addition, the water solubility entry in data set [1] is listed as “not water soluble”.
